The subject of one experiment is diet-induced NASH. It counts as in vivo, mice. The settings on record: for NASH-diet-induced hepatomegaly and yellowish coloration: leucine 0.17, glycine 0.33, DT-109 0.125 or 0.5 mg/g/day.
Experiment [1] relates to plasma lipids, adipokines and cytokines. In words: Plasma lipids, adipokines and cytokines in WD-fed apoE−/− mice. It counts as in vivo. The settings on record: for Time-dependent increase in plasma TC (baseline to endpoint): 1 week WD baseline vs 12 weeks of treatment; for Endpoint plasma HDL / Endpoint plasma LDL, reduced by / Endpoint plasma TC, reduced by: 6 hour fast; for Endpoint plasma HDL / Endpoint plasma LDL, reduced by / Endpoint plasma TC, reduced by / Plasma levels of glycine-containing tripeptide molecule, lower by: vs WD+H2O; for Plasma levels of glycine-containing tripeptide molecule, lower by: 12 weeks, glycine 0.67, DT-109/DT-110 1 mg/g; for Plasma HDL (lipid profile): endpoint (FIG. 15I); for Plasma glycine-containing tripeptide molecule: endpoint (FIG. 15K). The text has this:
(§1) Eight-week-old male apolipoprotein E-deficient (apoE−/−) mice (B6.129P2-Apoetm1Unc/J, Stock No.: 002052) were obtained from Jackson Laboratories. Mice were fed Western diet (WD, 42% of calories from fat and 0.2% cholesterol by weight, Envigo TD.88137). After one week of WD feeding, blood was carefully collected from the facial vein to determine baseline plasma levels of total cholesterol (TC). […] All mice were maintained on a 12-hour light/dark cycle and had ad libitum access to food and water. Body weight and food intake were measured every one and three weeks, respectively
Plasma levels of glycine tripeptide molecule, resistin, interleukin-6 (IL-6) and monocyte chemoattractant protein-1 (MCP1) were measured with a Luminex 200 chemistry analyzer (Luminex Corporation) at the Chemistry Laboratory of the MDRC using manufacturer-provided assay reagents and protocols (Millipore Multiplex, MMHMAG-44K). […]

Experiment [2] concerns WD-induced hepatic steatosis. In words: Liver H&E/ORO histology and hepatic lipid (TG, TC) quantification in WD-fed apoE−/− mice. The class given is in vivo. The settings on record: for Hepatic steatosis by H&E staining / HS by histology and lipid quantification: apoE−/− mice on WD; for Hepatic steatosis by H&E staining: 12 weeks; for HS by histology and lipid quantification: endpoint (FIG. 16A-C); for Hepatic TC, decreased by / Hepatic TG, decreased by: extracted hepatic lipids, endpoint, vs WD+H2O.
Source text: as §1
Histology processing was performed by the In Vivo Animal Core (IVAC) Histology Laboratory within the Unit for Laboratory Animal Medicine (ULAM) of the University of Michigan. Formalin-fixed tissues were processed through graded alcohols and cleared with xylene followed by infiltration with molten paraffin using an automated VIP5 or VIP6 tissue processor (TissueTek, Sakura-Americas). Following paraffin embedding using a Histostar Embedding Station (ThermoFisher Scientific), tissues were sectioned on a M 355S rotary microtome (ThermoFisher Scientific) at 4 μm thickness and mounted on glass slides. Following deparaffinization and hydration with xylene and graded alcohols, slides were stained for hematoxylin and eosin (H&E) using Harris hematoxylin (ThermoFisher Scientific, Cat #842), differentiated with Clarifier (ThermoFisher Scientific, Cat #7401), blued with bluing reagent (ThermoFisher Scientific, Cat #7301), stained with eosin Y, alcoholic (ThermoFisher Scientific, Cat #832), then dehydrated and cleared through graded alcohols and xylene and coverslipped with Micromount (Leica cat #3801731) using a Leica CV5030 automatic coverslipper. Immunohistochemical staining was performed on an IntelliPATH FLX automated immunohistochemical stainer (Biocare Medical, Cat #IPS0001US) and included blocking for endogenous peroxidases and non-specific binding, detection using a horseradish peroxidase biotin-free polymer based commercial detection system, disclosure with diaminobenzidine chromogen, and nuclear counterstaining with hematoxylin. Specific to F4/80, (Bio-Rad ABD Serotec, Cat #MCA497), the rat monoclonal primary antibody (clone CI:A3-1) was diluted to 1:400 in DaVinci Diluent (Biocare Medical, Cat #PD900) and incubated for 60 min followed by detection using Rat-on-Mouse HRP-Polymer, (Biocare Medical, Cat #RT517) 2-step probe-polymer incubation for 10 and 30 min respectively.
Livers were rapidly removed from the euthanized mice and kept at −80° C. Frozen liver samples (approximately 100 mg) were homogenized in PBS and centrifuged (14,000 RPM, 20 min). The supernatants were collected and analyzed for protein content by the Bio-Rad Bradford assay. To assess liver lipid composition, lipids were extracted from the supernatants using hexane ([…], 32293, Sigma-Aldrich) and isopropanol (≥99.5%, A426-4, Fisher Scientific) at a 3:2 ratio (v:v), and the hexane phase was left for evaporation for 48 h. The amount of liver TG or TC was determined spectrophotometrically using commercially available kits (Wako Chemicals). Data were normalized to protein levels and presented as μg TG or TC/mg protein.
Livers were rapidly removed from the euthanized mice, snap-frozen with liquid nitrogen, and kept at −80° C. Frozen liver samples (100 mg) were homogenized in PBS and centrifuged (14,000 RPM, 20 min). The supernatants were collected and analyzed for protein content using Bio-Rad Bradford assay. To assess liver lipid composition, lipids were extracted from the supernatants using hexane (≥99%, Sigma-Aldrich 32293) and isopropanol (≥99.5%, Fisher Scientific A428-4) at a 3:2 ratio (v:v), and the hexane phase was left for evaporation for 48 h. […] Liver diacylglycerols (DAG) were determined using ELISA Kit (Aviva Systems Biology, OKEH02607), according to the manufacturer's instructions. Hepatic TG, TC and DAG data were normalized to protein levels.

The test system of a further experiment is liver transcriptome. It counts as in vivo, mice. The settings on record: for TGFβ signaling and ECM remodeling pathways/genes (RNA-sequencing) / Pro-inflammatory signaling regulator and cytokine genes (NFKB1/2, RELB, CCR1/2/5, TLR1/2/4, TNFRSF1A/9/12, TNFα, CCL2/5) / Key genes regulating FAO (PPARα, PGC1α, ACOX1, CPT2, ACADS/M/L, HADHA/B, ACOT3/4): NASH-diet; for TGFβ signaling and ECM remodeling pathways/genes (RNA-sequencing): liver; for Pro-inflammatory signaling regulator and cytokine genes (NFKB1/2, RELB, CCR1/2/5, TLR1/2/4, TNFRSF1A/9/12, TNFα, CCL2/5) / Key genes regulating FAO (PPARα, PGC1α, ACOX1, CPT2, ACADS/M/L, HADHA/B, ACOT3/4): RNA-sequencing; for Key genes regulating FAO (PPARα, PGC1α, ACOX1, CPT2, ACADS/M/L, HADHA/B, ACOT3/4): confirmed by qPCR and Western blot. On the procedure: Library preparation and sequencing were performed by the U-M DNA Sequencing Core on a NovaSeq 6000 Sequencing System (Illumina). RNA-sequencing and pathway analyses were performed as described.
Total RNA from mouse liver samples was extracted as described above. Library preparation and sequencing were performed by the University of Michigan DNA Sequencing Core. RNA was assessed for quality using the TapeStation (Agilent, Santa Clara, Calif.). […] Samples were prepped using the NEBNext Ultra II Directional RNA Library Prep Kit for Illumina (NEB, E7760L) with Poly(A) mRNA Magnetic Isolation Module (NEB, E7490L) and NEBNext Multiplex Oligos for Illumina Unique dual (NEB, E6440L), where 10 ng-1 μg of total RNA were subjected to mRNA polyA purification. The mRNA was then fragmented and copied into first strand cDNA using reverse transciptase and dUTP mix. Samples underwent end repair and dA-Tailing step followed by ligation of NEBNext adapters. The products were purified and enriched by PCR to create the final cDNA library. Final libraries were checked for quality and quantity by TapeStation (Agilent) and qPCR using Kapa's library quantification kit for Illumina Sequencing platforms (Kapa Biosystems, KK4835). Libraries were paired-end sequenced on a […] Sequencing System (Illumina).
The quality of the raw Fastq files was checked through FastQC v0.11.8 (https://www.bioinformaties.babraham.ac.uk/projects/fastqc/). Trimmomatic v.0.35 was used to trim the low-quality reads with the parameters: SLIDINGWINDOW:4:20 MINLEN:25.12 The resulted high-quality reads were then mapped to the mouse reference genome (GRCm38.90) using HISAT2 v.2.1.0.13 Gene level quantification was performed using HTSeq-counts v0.6.0 based on the GRCm38.90 genome annotations.14 The R package DESeq2 was then used to identify significant differentially expressed genes. 15 We considered genes with adjusted P value less than 0.05 and absolute fold change larger than 2 as significant differentially expressed genes (DEGs). […] 16 The significance of the enrichment was determined by right-tailed Fisher's exact test followed by Benjamini-Hochberg multiple testing adjustment.
Mice fed CD and administered H2O served as control.

Non-standard residues stand in square brackets, D forms with d. No end group written: not given here.

`NCC(=O)O` [glycine, reference compound]: in the experiment on diet-induced NASH (endpoint, NASH-diet), the “F4/80 immunostaining in liver” value is “attenuated”; the “NASH-diet-induced hepatic fibrosis (Sirius Red and fibrosis scoring)” value (from here on “NASH-diet-induced hepatic fibrosis”) is on record as “protective effects”. Besides, the “NASH-diet-induced hepatomegaly and yellowish coloration” value in the experiment on diet-induced NASH (endpoint) is recorded as “markedly attenuated”. In experiment [1], the “Time-dependent increase in plasma TC (baseline to endpoint)” value is reported as “significantly attenuated”; the “Endpoint plasma HDL” value is listed as 35%; the “Endpoint plasma LDL, reduced by” value amounted to 30%; the “Endpoint plasma TC, reduced by” value was 19%. Moreover, in experiment [1] (apoE−/− mice on WD), the “Plasma levels of glycine-containing tripeptide molecule, lower by” value (shortened to “Plasma levels … lower by”) amounted to 53%; the “Plasma HDL (lipid profile)” value was “reduction in HDL”; the “Plasma glycine-containing tripeptide molecule” value was “reduced”. Also, the “Plasma MCP1 levels” value in experiment [1] (endpoint) is on record as “significantly reduced”. Also, in experiment [2], the “Hepatic steatosis by H&E staining” value is listed as “abolished”; the “HS by histology and lipid quantification” value is recorded as “reduced HS”; the “Hepatic TC, decreased by” value came out at 76%; the “Hepatic TG, decreased by” value worked out at 74%. For the same molecule, in the experiment on liver transcriptome, the “TGFβ signaling and ECM remodeling pathways/genes (RNA-sequencing)” value is “attenuated”; the “Pro-inflammatory signaling regulator and cytokine genes (NFKB1/2, RELB, CCR1/2/5, TLR1/2/4, TNFRSF1A/9/12, TNFα, CCL2/5)” value is listed as “attenuated”; the “Key genes regulating FAO (PPARα, PGC1α, ACOX1, CPT2, ACADS/M/L, HADHA/B, ACOT3/4)” value (“Key genes regulating FAO” below) is given as “reversed”.

Consider `CC(C)C[C@H](N)C(=O)O` [leucine], for which, in the experiment on diet-induced NASH (endpoint, NASH-diet), the “F4/80 immunostaining in liver” value is given as “significantly increased”; the “NASH-diet-induced hepatic fibrosis” value is given as “but not leucine”. Moreover, in experiment [2], the “Hepatic steatosis by H&E staining” value was “marked microvesicular and macrovesicular steatosis”; the “Hepatic TC, decreased by” value was “no significant effects”; the “Hepatic TG, decreased by” value is reported as “no significant effects”. In addition, in the experiment with liver transcriptome, the “Pro-inflammatory signaling regulator and cytokine genes (NFKB1/2, RELB, CCR1/2/5, TLR1/2/4, TNFRSF1A/9/12, TNFα, CCL2/5)” value was “upregulated”; the “Key genes regulating FAO” value is listed as “suppressed”.

For the molecule Gly-Gly-Leu [DT-109], the “Adipocyte hypertrophy in EAT and SAT” value in the experiment with diet-induced NASH (NASH-diet, 0.5 mg/g/day DT-109) is “decreased adipocyte hypertrophy”. Besides, the NAS entry with diet-induced NASH (endpoint, 0.5 mg/g/day DT-109) is “significantly decreased”. Moreover, in the experiment with diet-induced NASH (endpoint, NASH-diet), the “F4/80 immunostaining in liver” value is listed as “attenuated”; the “NASH-diet-induced hepatic fibrosis” value is on record as “protective effects”. The “NASH-diet-induced hepatomegaly and yellowish coloration” value in the experiment on diet-induced NASH (endpoint) is reported as “markedly attenuated”. Besides, in experiment [1], the “Time-dependent increase in plasma TC (baseline to endpoint)” value is recorded as “significantly attenuated”; the “Endpoint plasma HDL” value is “preserved”; the “Endpoint plasma LDL, reduced by” value was found to be 38%; the “Endpoint plasma TC, reduced by” value is recorded as 25%. Also, in experiment [1] (apoE−/− mice on WD), the “Plasma levels … lower by” value was 62%; the “Plasma HDL (lipid profile)” value is “without the reduction in HDL”; the “Plasma glycine-containing tripeptide molecule” value is on record as “reduced”. In addition, the “Plasma TC and LDL (lipid profile)” value in experiment [1] (apoE−/− mice on WD, DT-109 1 mg/g/day, endpoint) was “lowest TC and LDL”. For the same molecule, the “Plasma MCP1 levels” value in experiment [1] (endpoint) is “significantly reduced”. In experiment [2], the “Hepatic steatosis by H&E staining” value is “abolished”; the “HS by histology and lipid quantification” value is “reduced HS”; the “Hepatic TC, decreased by” value was determined as 71%; the “Hepatic TG, decreased by” value is given as 73%. In addition, the “Pathway analysis, NASH-diet H2O control vs treatment” value with liver transcriptome (DT-109 0.5 mg/g/day) is “reversed NASH-diet-induced alterations in underlying pathways”. In the experiment with liver transcriptome, the “TGFβ signaling and ECM remodeling pathways/genes (RNA-sequencing)” value was “attenuated”; the “Pro-inflammatory signaling regulator and cytokine genes (NFKB1/2, RELB, CCR1/2/5, TLR1/2/4, TNFRSF1A/9/12, TNFα, CCL2/5)” value is “attenuated”; the “Key genes regulating FAO” value is “reversed”.

On to Gly-Gly-[dL] [DT-110], for which the “Plasma levels … lower by” value in experiment [1] (apoE−/− mice on WD) turned out to be 56%. Further, the “Plasma MCP1 levels” value in experiment [1] (endpoint) was “significantly reduced”. Besides, in experiment [2], the “Hepatic steatosis by H&E staining” value is “abolished”; the “Hepatic TC, decreased by” value stood at 63%; the “Hepatic TG, decreased by” value is on record as 68%.

Values taken from patent US20230181673A1, “TRI-PEPTIDES AND TREATMENT OF METABOLIC, CARDIOVASCULAR AND INFLAMMATORY DISORDERS” (Diapin Therapeutics, LLC, priority 2018, published 2023).
